Measurements: patent US20090170847A1, “Imidazopyridine Derivatives Inhibiting Protein Kinase Activity, Method for the Preparation Thereof and Pharmaceutical Composition Containing Same” (priority 2006, published 2009)
pIC50: −log10 of the molar value.

biological target: human GSK-3β (Homo sapiens, UniProt P49841); experiment: GSK-3β enzyme inhibition (32P-ATP, phospho-CREB peptide, filter paper); assay type: biochemical; details: 100 μM ATP, 30° C., 1 hour
Method: GSK-3β was prepared by a gene recombination method.
First, primers corresponding to 5′-end and 3′-end of polynucleotide encoding human GSK-3β were designed and synthesized from nucleotide sequence of human GSK-3β (GenBank Reg. No. L33801). Then, the primers were amplified by PCR (polymerase chain reaction) in which a human DNA sequence was employed as a template and treated with restriction enzyme BamH1/XhoI. The resulting gene fragments were inserted into the corresponding identical restriction sites of pGex vector (GE Healthcare Life Science) to prepare an expression vector for transformation of E. coli BL21 (DE3) strain (Invitrogen). The transformed E. coli strain was inoculated to LB medium (1% Bacto tryptone, 0.5% yeast extract, 1% sodium chloride) and cultured until the optical density of the bacterial cells was about 0.5 at 600 nm and 37° C. Then, IPTG (isopropyl-β-D-thiogalactoside) was added thereto to a final concentration to 0.5 mM at 18° C. 16 hours after IPTG addition, the cells were subjected to centrifugation at 10,000×g for 10 mins and cell precipitates were collected. The cell precipitates were suspended in a buffer solution (30 mM tris-HCl (pH 7.5), 100 mM NaCl, 5% glycerol, 2 mM DTT) and the cells were smashed in an ice bath using a Sonic Dismembrator (Fisher, USA). The resulting solution was centrifuged at 16,000 rpm for 30 mins.
The supernatant obtained above was introduced to a pre-equilibrated GST column (Pharmacia, USA) and eluted by 5 mM glutachione. The effuent was subjected to SDS-PAGE and GSK-3β protein was collected. GST protein was cutt using thrombin. The GSK-3β protein thus obtained was diluted with a buffer solution (20 mM HEPES (pH 7.5), 5% glycerol, 2 mM DTT) until the concentration of NaCl reached 50 mM. The diluted solution was introduced to Mono S column (Pharmacia, USA) equilibrated with the above buffer solution and eluted with a aqueous NaCl while changing the concentration from 0 to 1 M NaCl, and GSK-3β protein was collected by a electrophoresis. The purified protein was used in the analysis for the activity for enzyme activity.
The enzyme reaction was conducted in a buffer solution (50 mM of tris-HCl (pH 7.5), 10 mM of MgCl2, 1 mM of EGTA, 1 mM of EDTA and 1 mM of DTT). 100 μM of phosho-CREB peptide (NEB, USA), 100 μM of ATP and 1 μCi of ^32P-ATP were added to the buffer solution as substrates. And then 100 nM of recombinant GSK-3β was added thereto and the mixture was reacted at 30° C. for 1 hour. The reaction was terminated by the addition of 5 μl of 5% phosphoric acid solution to 25 μl of the reaction mixture. The resulting solution was subjected to centrifugation at 15,000 for 10 mins and 20 μl of the supernatant thus obtained was dropped on whatman p81 filter paper. The filter paper was washed in 0.5% phosphoric acid solution for 10 mins. After repeating the washing 3 times, the filter paper was dried and its cpm (counter per mins) was assessed.
The test solution prepared above by dissolving a test compound in DMSO was added to the reaction solution in an amount of less than 5% based on the total reaction solution to analyze the capacity for enzyme inhibitory activity.

Sequence of human GSK-3β (P49841 whole entry): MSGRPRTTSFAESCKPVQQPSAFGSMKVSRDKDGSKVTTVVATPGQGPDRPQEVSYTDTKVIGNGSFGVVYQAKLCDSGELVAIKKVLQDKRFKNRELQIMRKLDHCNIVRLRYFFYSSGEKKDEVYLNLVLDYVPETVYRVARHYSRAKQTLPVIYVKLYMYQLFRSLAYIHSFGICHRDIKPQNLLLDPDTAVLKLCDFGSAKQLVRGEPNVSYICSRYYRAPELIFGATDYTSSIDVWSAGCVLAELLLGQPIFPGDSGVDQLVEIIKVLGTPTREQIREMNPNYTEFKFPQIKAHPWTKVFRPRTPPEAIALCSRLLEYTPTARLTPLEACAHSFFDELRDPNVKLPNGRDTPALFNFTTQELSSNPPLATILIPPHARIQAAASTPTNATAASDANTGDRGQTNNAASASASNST

| pIC50 | Structure (SMILES) |
| --- | --- |
| 7.70 | CC(=O)Nc1ccc(CCNC(=O)c2ccnc3[nH]c(-c4ccccc4)nc23)cc1 [Example 1, 2-phenyl-3H-imidazo[4,5-b]-pyridine-7-carboxylic acid [2-(4-acetylamino-phenyl)-ethyl]-amide] |
| 7.42 | CC(=O)Nc1ccc(CCNC(=O)c2ccnc3[nH]c(-c4ccc(Cl)cc4)nc23)cc1 [Example 44, 2-(4-chloro-phenyl)-3H-imidazo[4,5-b]pyridine-7-carboxylic acid[2-(4-acetylamino-phenyl)-ethyl]-amide] |
| 8.52 | CCSc1ccncc1NC(=O)c1ccnc2[nH]c(-c3ccc(Cl)cc3)nc12 [Example 61, 2-(4-chloro-phenyl)-3H-imidazo[4,5-b]pyridine-7-carboxylic acid(4-ethylsulfanyl-pyridin-3-yl)-amide] |
| 7.28 | O=C(NCCCc1ccncc1)c1ccnc2[nH]c(-c3cccs3)nc12 [Example 109, 2-thiophen-2-yl-3H-imidazo[4,5-b]pyridine-7-carboxylic acid(3-pyridin-4-yl-propyl)-amide] |
| 8.70 | CCOc1cc(C)ncc1NC(=O)c1ccnc2[nH]c(-c3ccc(F)cc3)nc12 [Example 325, 2-(4-fluoro-phenyl)-3H-imidazo[4,5-b]pyridine-7-carboxylic acid(4-ethoxy-6-methyl-pyridin-3-yl)-amide] |

The remaining lines, values behind:

| Structure (SMILES) | pIC50 |
| --- | --- |
| CN1CCN(c2ccc(-c3nc4c(C(=O)Nc5cccnc5)ccnc4[nH]3)cc2)CC1 [Example 327, 2-[4-(4-methyl-piperazin-1-yl)-phenyl]-3H-imidazo[4,5-b]pyridine-7-carboxylic acid pyridin-3-ylamide] | 7.30 |
| Cc1ccncc1NC(=O)c1ccnc2[nH]c(-c3ccc(N4CCCC4)cc3)nc12 [Example 332, 2-(4-pyrrolidin-1-yl-phenyl)-3H-imidazo[4,5-b]pyridine-7-carboxylic acid(4-methyl-pyridin-3-yl)-amide] | 7.92 |
| CCOc1ccncc1NC(=O)c1ccnc2[nH]c(-c3ccc(N4CCCC4)cc3)nc12 [Example 404, 2-(4-pyrrolidin-1-yl-phenyl)-3H-imidazo[4,5-b]pyridine-7-carboxylic acid(4-ethoxy-pyridin-3-yl)-amide] | 8.52 |

biological target: T1, Aurora Kinase A (Homo sapiens, UniProt O14965); experiment: Aurora kinase A enzyme inhibition (Kemptide, Kinase glo); assay type: biochemical; details: 1 μM ATP
T1 construct: purchased Upstate
T1 sequence (O14965 1-403): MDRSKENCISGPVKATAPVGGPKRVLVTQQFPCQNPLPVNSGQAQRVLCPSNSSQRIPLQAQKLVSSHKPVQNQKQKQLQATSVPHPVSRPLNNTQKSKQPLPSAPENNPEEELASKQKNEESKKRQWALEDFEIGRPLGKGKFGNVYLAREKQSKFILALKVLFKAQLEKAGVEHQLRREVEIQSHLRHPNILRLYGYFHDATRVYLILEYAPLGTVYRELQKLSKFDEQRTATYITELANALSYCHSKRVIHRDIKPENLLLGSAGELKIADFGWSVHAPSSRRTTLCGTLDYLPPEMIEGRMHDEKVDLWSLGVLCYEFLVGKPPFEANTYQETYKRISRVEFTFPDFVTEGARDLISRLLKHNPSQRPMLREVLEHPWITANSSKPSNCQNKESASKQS
Method: The test solution prepared above by dissolving a test compound in DMSO was added to the reaction solution in an amount of less than 5% based on the total reaction solution to analyze the capacity for enzyme inhibitory activity. The cpm value obtained when the test compounds was present relative to the cpm value in the absence of the test compound was represented by percentage, and IC50 (μM) was determined as the concentration of the test compound required to inhibit the enzyme activity by 50% relatively to the control solution.
A test solution was prepared by dissolving one of the compounds of the Examples in DMSO at a concentration of 12.5 mM. Enzyme reaction was conducted in a buffer solution containing 20 mM of HEPES (pH 7.5), 5 mM MgCl2, 0.5 mM ethylene glycol bis(b-aminoethylether) tetraacetic acid (EGTA), 200 mM of KCl, 1 mM of DTT and 0.05% triton X-100. 100 μM of Kemptide peptide (Upstate) and 1 μM of ATP were added to the buffer solution as substrates. Recombinant aurora kinase (Upstate) was added the resulting mixture at a concentration of 10 nM and reaction was carried out at 30° C. for 1 hour. 25 μl of the resulting solution was mixed with 25 μl of Kinase glo (promega), thereby inducing the second reaction by luciferase. The amount of remained ATP was measured by fusion a-FP (Packard, USA). Inhibitory capacities of the test compounds for the enzyme activity were assessed according to the same method as in GSK-3β analysis, and IC50 value was calculated.

| pIC50 | Structure (SMILES) |
| --- | --- |
| 5.96 | CN(C)CCOc1ccncc1NC(=O)c1ccnc2[nH]c(-c3ccc(F)cc3)nc12 [Example 313, 2-(4-fluoro-phenyl)-3H-imidazo[4,5-b]pyridine-7-carboxylic acid[4-(2-dimethylamino-ethoxy)-pyridin-3-yl]-amide] |
| 7.48 | CCC(C)(C)NC(=O)c1ccnc2[nH]c(-c3ccc(NCCN(C)C)cc3)nc12 [Example 381, 2-[4-(2-dimethylamino-ethylamino)-phenyl]-3H-imidazo[4,5-b]pyridine-7-carboxylic acid(1,1-dimethyl-propyl)-amide] |
| 6.60 | CCN(CC)C1CCN(c2ccc(-c3nc4c(C(=O)Nc5ccc(C)nc5)ccnc4[nH]3)cc2)C1 (centres unmarked) [Example 409, 2-[4-(3-diethylamino-pyrrolidin-1-yl)-phenyl]-3H-imidazo[4,5-b]pyridine-7-carboxylic acid(6-methyl-pyridin-3-yl)-amide] |
| < 5.22 | CCOc1ccncc1NC(=O)c1ccnc2[nH]c(-c3ccc(OC)cc3)nc12 [Example 425, 2-(4-methoxy-phenyl)-3H-imidazo[4,5-b]pyridine-7-carboxylic acid(4-ethoxy-pyridin-3-yl)-amide] |

The remaining lines, values behind:

| Structure (SMILES) | pIC50 |
| --- | --- |
| O=C(NC1C2CC3CC(C2)CC1C3)c1ccnc2[nH]c(-c3ccc(F)cc3)nc12 (centres unmarked) [Example 264, 2-(4-fluoro-phenyl)-3H-imidazo[4,5-b]pyridine-7-carboxylic acid adamantan-2-ylamide] | 7.15 |
| CC1(C)C2CC[C@@]1(C)[C@@H](NC(=O)c1ccnc3[nH]c(-c4ccc(NCCN5CCOCC5)cc4)nc13)C2 [Example 368, 2-[4-(2-morpholin-4-yl-ethylamino)-phenyl]-3H-imidazo[4,5-b]pyridine-7-carboxylic acid(1,7,7-trimethyl-bicyclo[2.2.1]heptin-2-yl)-amide] | 7.40 |
| CN1CCN(c2ccc(-c3nc4c(C(=O)NC5CC6CCC5C6)ccnc4[nH]3)cc2)CC1 (centres unmarked) [Example 371, 2-[4-(4-methyl-piperazin-1-yl)-phenyl]-3H-imidazo[4,5-b]pyridine-7-carboxylic acid bicyclo[2.2.1]heptin-2-ylamide] | 6.95 |
| CCSc1ccncc1NC(=O)c1ccnc2[nH]c(-c3ccc(N4CCN(C)CC4)cc3)nc12 [Example 418, 2-[4-(4-methyl-piperazin-1-yl)-phenyl]-3H-imidazo[4,5-b]pyridine-7-carboxylic acid(4-ethylsulfanyl-pyridin-3-yl)-amide] | 6.70 |
| CCOc1cc(C)ncc1NC(=O)c1ccnc2[nH]c(-c3ccc(N4CCN(C)CC4)cc3)nc12 [Example 423, 2-[4-(4-methyl-piperazin-1-yl)-phenyl]-3H-imidazo[4,5-b]pyridine-7-carboxylic acid(4-ethoxy-6-methyl-pyridin-3-yl)-amide] | 6.98 |
